# Tests used:
# [1] = system: tau in hippocampal neurons; experiment: Immunocytochemistry of endogenous tau and tau/PSD-95 co-localization; format: cell-based, Sprague-Dawley rats; settings: for % co-localization of tau and PSD-95 in Aβ1-42-treated neurons / relative tau intensity in Aβ1-42-treated neurons: Aβ1-42 1 μM plus leptin/fragment 10 nM or SB216763 100 nM
# Method: Hippocampal cultures were prepared as previously (Moult et al, 2010). Neonatal Sprague-Dawley rats (1-3 d old) were […] killed by cervical dislocation in accordance with the UK Animals (Scientific Procedures Act) 1986 legislation. Hippocampi were removed, and after washing in HEPES-buffered saline comprising (mM) 135 NaCl; 5 KCl; 1 CaCl2; 1 MgCl2; 10 HEPES; and 25 D-glucose at […], were treated with papain (1.5 mg ml21; Sigma-Aldrich) for 20 min at 37° C. Dissociated cells were plated onto sterile dishes (35 mm diameter; Greiner Bio-One, Kremsmun-ster, Austria) treated with poly-D-lysine (20 μg ml^−1; 1-2 h). Cultures were maintained in serum replacement medium (SR2; Sigma-Aldrich) in a humidified atmosphere of 5% CO2 and […] at 37° C. for up to 2 wk.
# Immunocytochemistry was conducted on primary hippocampal cultures (7-14 DIV). Prior to labelling with antibodies, neurons were washed with HBS containing glycine (0.01 mM) and incubated with agents for 1 h at room temperature. Cultures were fixed with 4% paraformaldehyde for 5 min, then permeabilized with 0.1% Triton X-100 for 5 min. To label endogenous tau, neurons were incubated with a rabbit anti-tau (Ab-217; Genscript) primary antibody (1:200 dilution) at room temperature for 30 min, followed by incubation with an Alexa Fluor555 donkey anti-rabbit (1:250, Invitrogen) secondary antibody for an additional 30 min duration. To assess the % co-localisation of tau at synapses, neurons were dual labelled with an antibody against the synaptic marker, PSD-95 (mouse anti-PSD-95; 1:500, Thermo Fisher) followed by application of an Alexa Fluor488 goat anti-mouse secondary antibody (1:500, Invitrogen).
# A Zeiss LSM510 confocal microscope was used for image acquisition and analysis. Images were obtained using a 10-s scan speed in single tracking mode or multi-tracking mode for dual labelling experiments. The intensity of immunostaining was measured off-line using Lasersharp software (Zeiss Lasersharp), whereby analysis lines of 50 μm length were drawn along randomly selected dendritic regions. All data were obtained from at least three different cultures from different animals. Imaging conditions including illumination intensity and photomultiplier gains were kept constant between treatments for each experiment. In addition, data were normalised relative to the mean fluorescence intensity obtained from control neurons. For synaptic co-localisation experiments, tau and PSD-95 positive immunostaining were compared. The number of tau-positive sites that co-localized with PSD-95 positive sites were counted and expressed as a percentage of total positive sites (peaks of intensity).
# [2] = system: juvenile hippocampal slices (P13-21); experiment: Primed burst stimulation: conversion of STP into persistent increase in synaptic transmission (fEPSP); format: cell-based, Sprague Dawley rats; settings: 50 nM, at 40 min
# Method: (§1) Parasagittal hippocampal slices (300 μm) were prepared from either P13-21 or 12-24-week-old male Sprague Dawley rats as previously (Moult et al. 2010). Brains were rapidly removed and placed in ice-cold artificial CSF (aCSF; bubbled with 95% O2 and 5% CO2) containing the following (in mm): 124 NaCl, 3 KCl, 26 NaHCO3, 1.25 NaH2PO4, 2 CaCl2, 1 MgSO4, and 10 d-glucose. Once prepared, parasagittal slices were allowed to recover at room temperature in oxygenated aCSF for 1 h before use. Slices were transferred to a submerged chamber maintained at room temperature and perfused with artificial cerebrospinal fluid at 2 ml min^−1. Standard extracellular recordings were used to monitor evoked field excitatory postsynaptic potentials (fEPSP) from stratum radiatum. The Schaffer collateral-commissural pathway was stimulated (constant voltage; 0.1 ms) at 0.033 Hz, using a stimulus intensity that evoked a peak amplitude ˜50% of the maximum. Synaptic potentials were low pass filtered at 2 kHz and digitally sampled at 10 kHz. The fEPSP slope was measured and expressed relative to baseline. Synaptic records are the average of 4 consecutive responses and stimulus artefacts are blanked for clarity. Recordings were made using an Axopatch 200B amplifier and analyzed using LTP v2.4 software. In synaptic plasticity studies, the degree of potentiation was calculated 30-35 min after HFS and expressed as a percentage of baseline±standard error of mean (SEM).
# It is known that NMDA receptors contribute little to basal excitatory synaptic transmission but synaptic activation of NMDA receptors is crucial for LTP induction at hippocampal synapses (Bliss and Collingridge 1993). Previous studies indicate that lep-tin enhances the magnitude of activity-dependent LTP in acute hippocampal slices (Oomura et al. 2006) and following direct administration into the hippocampus in vivo (Wayner et al. 2004). We have also shown that leptin facilitates NMDA receptor-dependent synaptic plasticity as leptin promotes conversion of short term potentiation (STP) to hippocampal LTP (Shanley et al. 2001). […]
# [3] = system: adult hippocampal slices (12-24 weeks); experiment: Excitatory synaptic transmission (fEPSP) in adult hippocampal slices; format: cell-based, Sprague Dawley rats; settings: 25 nM; 20 min; adult (12-24 weeks) slices
# Method: as §1
# We have shown that leptin regulation of excitatory synaptic transmission is age-dependent. Thus in contrast to its effects in juvenile tissue, leptin (25 nM) induces a novel form of LTP in adult hippocampus (Moult and Harvey 2011). In order to verify if the leptin fragments mirror leptin action in adult tissue, the effects of the leptin fragments were examined in hippocampal slices from adult (12-24 weeks) rats.
Substance,"% co-localization of tau and PSD-95, Aβ peptide alone ([1]; 1 μM)","relative tau intensity at dendrites, Aβ peptide alone ([1]; 1 μM)",synaptic transmission after primed burst stimulation [2],synaptic transmission [3],% co-localization of tau and PSD-95 in Aβ1-42-treated neurons [1],relative tau intensity in Aβ1-42-treated neurons [1]
"Aβ1-42: amyloid beta 1-42, toxin used in the AD models [reference compound]",increases % co-localization between endogenous tau and PSD-95,increased endogenous tau expression compared to control,–,–,–,–
SCSLPQTSGLQKPES (listed as Mus musculus) [leptin (116-130)],–,–,143±6.4 % of baseline,140±13 % of baseline,prevented Aβ1-42-driven movement of tau to synapses,reducing dendritic tau levels
"leptin (22-56): leptin fragment amino acids 22-56 (Bachem), comparison fragment (VPIQKVQDDTKTLIKTIVTRINDISHTQSVSSKQK; UniProt P41159 22-56, looked up, fragment) [reference compound]",–,–,only STP was observed,99±2 % of baseline,–,–
"leptin: the metabolic hormone leptin, whole (full length) leptin molecule; human leptin from Sigma in SH-SY5Y work",–,–,155±6.1 % of baseline,188±13 % of baseline,prevented the Aβ1.42-driven movement of tau to synapses,reducing the dendritic levels of tau to near control levels

# From patent publication US20200255492A1, “LEPTIN PEPTIDES AND THEIR USE FOR TREATING NEUROLOGICAL DISORDERS” (UNIVERSITY OF DUNDEE, priority 2017, published 2020)
